Where two headings read alike, the source gives them in different places.
Legend:
[1] = cited from earlier work
[2] = 20° C.; cited from earlier work
[3] = cited from earlier work; remark: listed apart in the source
Trichoderma viride = settings: cited from earlier work
[4] = tested on: human and yeast CYP51 (lanosterol-14α-demethylase); settings: cited from earlier work; for relative selectivity for the fungal enzyme (in words): based on the IC50 ratio human/yeast; for ratio of IC50 values (human/yeast) against CYP51: human CYP51 IC50 / yeast (Candida albicans) CYP51 IC50
[5] = cited from earlier work; remark: listed apart in the source
[6] = tested on: Trametes versicolor (White rot); experiment: Malt extract agar plate growth inhibition; format: cell-based; settings: Example 4, 5 days at 25° C.
Procedure: (§1) The end points used were EC90 or EC50, the concentration producing 90% or 50% inhibition of growth or weight loss resulting from fungal growth. EC values were calculated by regression analysis of dose response data using the GraphPad Prism software package (GraphPad Software, Inc., 5755 Oberlin Drive #110, San Diego, Calif. 92121, USA). EC90 values are expressed in ppm and EC50 values are expressed in gai/m^3.
(§2) Decay fungi were grown on malt extract agar plates for 5 days at 25° C. in the presence of triadimefon alone or triadimenol alone (A), cyproconazole alone (B), and the pairs of mixtures shown in Table 2.

[7] = tested on: Fomitopsis lilacino-gilva (Brown rot); experiment: Malt extract agar plate growth inhibition; format: cell-based; settings: Example 4, 5 days at 25° C.
Procedure: as §1, §2

Decay fungi = experiment: Malt extract agar plate growth test, statements over all decay fungi tested; format: cell-based; settings: Example 4, EC90, Antrodia xantha, Fomitopsis lilacino-gilva, Trametes versicolor
Procedure: as §1, §2
(§3) Further EC90 values were determined for this example in a standard manner.

[8] = tested on: Serpula lacrymans (Dry rot); experiment: Malt extract agar plate growth inhibition; format: cell-based; settings: Example 5, 5 days growth
Procedure: as §1, with “gai/m^3. […]” for “gai/m^3.”
as §3

[9] = tested on: Gloeophyllum abietinum (Brown rot); experiment: Malt extract agar plate growth inhibition; format: cell-based; settings: Example 5, 7 days growth
Procedure: as §1, with “gai/m^3. […]” for “gai/m^3.”
as §3

[10] = tested on: Pycnoporus coccineus (White rot); experiment: Malt extract agar plate growth inhibition; format: cell-based; settings: Example 5, 4 days growth
Procedure: as §1, with “gai/m^3. […]” for “gai/m^3.”
as §3

[11] = tested on: Poria placenta (Brown rot); experiment: Malt extract agar plate growth inhibition; format: cell-based; settings: Example 5, 5 days growth
Procedure: as §1, with “gai/m^3. […]” for “gai/m^3.”
as §3

[12] = tested on: Tyromyces palustris (Brown rot); experiment: Malt extract agar plate growth inhibition; format: cell-based; settings: Example 5, 4 days growth
Procedure: as §1, with “gai/m^3. […]” for “gai/m^3.”
as §3

Chondrostereum purpureum = settings: cited from earlier work
[13] = tested on: Antrodia xantha (Brown rot); experiment: Malt extract agar plate growth inhibition; format: cell-based; settings: Example 4, 5 days at 25° C.
Procedure: as §1, with “gai/m^3. […]” for “gai/m^3.”

[14] = tested on: Fomitopsis lilacino-gilva; experiment: Rot jar test of glueline treated Pinus radiata plywood (AWPC 2007); settings: rot jar after leaching
Procedure: as §1
(§4) Efficacy as a glueline fungicide was tested in plywood manufactured with phenol formaldehyde (PF), a typical resin used in engineered wood products. The wood type was Pinus radiata sapwood, which, like many softwoods, is rapidly degraded by decay organisms, if not protected. Five 3.2 mm rotary-peeled veneers were laid up with fungicide-containing PF resin at a typical commercial glue spread rate (250 g/m^2), cold pressed for 10 minutes then hot pressed for 12 minutes at 135° C. and […]. Test specimens (25 mm×25 mm×16 mm) were cut, then leached for 14 days according to EN 84 before conducting a three month “rot jar test” as specified by the Australasian Wood Preservation Committee (Laboratory Decay Test for Hazard Classes H3, H4 and H5, AWPC, 2007). Untreated controls contained no fungicide.
(§5) Plywood was manufactured following the procedure in Example 7 using triadimefon and triadimenol as the glueline fungicides and tested by the rot jar method after leaching.
(§6) In order to examine the interaction between triadimefon and cyproconazole in the glueline a synergy trial was performed using plywood manufactured with fungicide-supplemented PF resin and the rot jar method described above. Six glueline rates (expressed as gai/m^3) of triadimefon alone, cyproconazole alone, triadimefon+cyproconazole (10:1) and triadimefon+cyproconazole (6:1) were used to establish EC50 values by regression analysis. Synergy was determined by the Wadley method as described above using the EC50 values.
(§7) Plywood 29 mm thick was manufactured from seven 4.3 mm rotary peeled Pinus radiata sapwood veneers using PF resin supplemented with various rates of triadimefon plus cyproconazole at a 10:1 ratio. […] The finished plywood was then sprayed with the same mixtures to cover the top and bottom faces of the plywood. Test specimens (25 mm×25 mm×29 mm) were cut, leached and tested by the rot jar method as described in Example 7.

Antrodia xantha = experiment: as above; settings: rot jar after leaching
Procedure: as §1, §4, §5, §6, §7

Coriolus versicolor = settings: cited from earlier work
Tyromyces palustris = experiment: Rot jar test of glueline treated Pinus radiata plywood (AWPC 2007); settings: rot jar after leaching
Procedure: as §4
Plywood was manufactured following the procedure in Example 7 using triadimefon and triadimenol as the glueline fungicides and tested by the rot jar method after leaching. […]

[15] = cited from earlier work; remark: listed apart in the source
[16] = Example 8, glueline 250 gai/m3, PF plywood
[17] = Example 8, glueline 500 gai/m3, PF plywood
[18] = Example 8, glueline 1000 gai/m3, PF plywood
[19] = Example 8, glueline 2000 gai/m3, PF plywood
[20] = in words, temperature not given

CC(C)(C)C(O)(CCc1ccc(Cl)cc1)Cn1cncn1 (racemic) [Tebuconazole]
Stability, hydrolysis DT50 ([1]; pH 4-9): DT50 >1 y pH 4-9 | Sol. Water [2]: 36 mg/L (20° C.) | Sol. DCM ([3]; 20° C.): >200 g/L (20° C.) | Sol. hexane ([3]; 20° C.): <0.1 g/L (20° C.) | Sol. toluene ([3]; 20° C.): 50-100 g/L (20° C.)

CC(C)(C)C(O)C(Oc1ccc(Cl)cc1)n1cncn1 (centres unmarked) [Triadimenol]
sensitivity of the fungus (in words) (Trichoderma viride): insensitive | relative selectivity for the fungal enzyme (in words) [4]: moderately selective | ratio of IC50 values (human/yeast) against CYP51 [4]: 113 | Henry ([5]; triadimenol form A): 3 × 10^−6 P m^3 mo1^−1 | Henry ([5]; triadimenol form B): 4 × 10^−6 P m^3 mo1^−1 | Stability, hydrolysis DT50 ([1]; pH 4): DT50 >1 y pH 4,7,9 | EC90(obs) [6]: 0.15 ppm | EC90(obs) [7]: 0.37 ppm | efficacy acting alone relative to triadimefon acting alone (Decay fungi): two to ten times more efficacious | EC90(obs) [8]: 42.8 ppm | EC90(obs) [9]: 1.80 ppm | EC90(obs) [10]: 0.10 ppm | EC90(obs) [11]: 0.84 ppm | EC90(obs) [12]: 1.26 ppm | sensitivity of the fungus (in words) (Chondrostereum purpureum): sensitive | EC90(obs) [13]: 1.12 ppm | Percentage weight loss [14, 16]: 9.0% | Percentage weight loss [14, 17]: 5.1% | Percentage weight loss [14, 18]: 1.6% | Percentage weight loss [14, 19]: 0.9% | Percentage weight loss (Antrodia xantha; [16]): 24.7% | Percentage weight loss (Antrodia xantha; [17]): 18.4% | Percentage weight loss (Antrodia xantha; [18]): 11.2% | Percentage weight loss (Antrodia xantha; [19]): 1.0% | sensitivity of the fungus (in words) (Coriolus versicolor): sensitive | Percentage weight loss (Tyromyces palustris; [16]): 9.6% | Percentage weight loss (Tyromyces palustris; [17]): 6.5% | Percentage weight loss (Tyromyces palustris; [18]): 0.9% | Percentage weight loss (Tyromyces palustris; [19]): 0.3%

Propiconazole
relative selectivity for the fungal enzyme (in words) [4]: moderately selective | ratio of IC50 values (human/yeast) against CYP51 [4]: 55 | Sol. Water [2]: 100 mg/L (20°) | Sol. hexane ([3]; 25° C.): 47 g/L (25° C.) | Sol. DCM [3, 20]: Completely misc | Sol. toluene [3, 20]: Completely misc | Kow (log P) [15]: 3.72

Source: patent US9826740B2, “Synergistic fungicidal compositions and methods of use” (ZELAM LIMITED, priority 2010, dated 2017)
